From PubChem BioAssay AID1919003 (Molecular Pharmacology Branch, DTP, NCI, 2023)

System: 786-0 complex spheroids with HUVEC/MSC, growth % test/control
Assay: Anticancer human tumor 786-0 cell line growth inhibition [AhR];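 further: compound exposure lasted seven days before the read-out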
Conditions: for IC50: curve of first compound; for viability, T/C: stronger effect = lower value
Outline: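 Spheroids combined tumor cells with HUVEC endothelial cells and human MSCs as stroma. AhR antagonists were paired with standard or investigational drugs, each dosed in half-log steps down from near clinical Cmax, or from 10 microM where Cmax was unknown.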

[1] = second compound 0.1 µM, first compound 0.000949 µM
[2] = second compound 0.1 µM, first compound 0.003 µM
[3] = second compound 0.1 µM, first compound 0.00949 µM
[4] = second compound 0.1 µM, first compound 0.03 µM
[5] = second compound 0.1 µM, first compound 0.0949 µM
[6] = second compound 0.1 µM, first compound 0.3 µM
[7] = second compound 0.316 µM, first compound 0.000949 µM
[8] = second compound 0.316 µM, first compound 0.003 µM
[9] = second compound 0.316 µM, first compound 0.00949 µM
[10] = second compound 0.316 µM, first compound 0.03 µM
[11] = second compound 0.316 µM, first compound 0.0949 µM
[12] = second compound 0.316 µM, first compound 0.3 µM
[13] = second compound 1 µM, first compound 0.000949 µM
[14] = second compound 1 µM, first compound 0.003 µM
[15] = second compound 1 µM, first compound 0.00949 µM
[16] = second compound 1 µM, first compound 0.03 µM
[17] = second compound 1 µM, first compound 0.0949 µM
[18] = second compound 1 µM, first compound 0.3 µM
[19] = second compound 3.16 µM, first compound 0.000949 µM
[20] = second compound 3.16 µM, first compound 0.003 µM
[21] = second compound 3.16 µM, first compound 0.00949 µM
[22] = second compound 3.16 µM, first compound 0.03 µM
[23] = second compound 3.16 µM, first compound 0.0949 µM
[24] = second compound 3.16 µM, first compound 0.3 µM
[25] = second compound 10 µM, first compound 0.000949 µM
[26] = second compound 10 µM, first compound 0.003 µM
[27] = second compound 10 µM, first compound 0.00949 µM
[28] = second compound 10 µM, first compound 0.03 µM
[29] = second compound 10 µM, first compound 0.0949 µM
[30] = second compound 10 µM, first compound 0.3 µM

Structure (SMILES) | IC50 (second compound 0.1 µM) [nM] | IC50 (second compound 0.316 µM) [nM] | IC50 (second compound 1 µM) [nM] | IC50 (second compound 3.16 µM) [nM] | IC50 (second compound 10 µM) [nM] | viability, T/C [1] [%] | viability, T/C [2] [%] | viability, T/C [3] [%] | viability, T/C [4] [%] | viability, T/C [5] [%] | viability, T/C [6] [%] | viability, T/C [7] [%] | viability, T/C [8] [%] | viability, T/C [9] [%] | viability, T/C [10] [%] | viability, T/C [11] [%] | viability, T/C [12] [%] | viability, T/C [13] [%] | viability, T/C [14] [%] | viability, T/C [15] [%] | further results
Nc1ncn(C2CC(O)C(CO)S2)c(=O)n1 (stereo not given) + CC(CO)NC(=O)c1cc(-c2ccc(Cl)cc2)nn(-c2cnn(C)c2)c1=O | > 300 | > 300 | > 300 | > 300 | > 300 | 102 | 97.3 | 99.8 | 102 | 92.3 | 67.2 | 101 | 109 | 109 | 107 | 94.8 | 64.7 | 104 | 115 | 111 | viability, T/C [16]: 102%; viability, T/C [17]: 97.9%; viability, T/C [18]: 63.1%; viability, T/C [19]: 122%; viability, T/C [20]: 108%; viability, T/C [21]: 115%; viability, T/C [22]: 108%; viability, T/C [23]: 92.6%; viability, T/C [24]: 66.4%; viability, T/C [25]: 118%; viability, T/C [26]: 116%; viability, T/C [27]: 117%; viability, T/C [28]: 123%; viability, T/C [29]: 119%; viability, T/C [30]: 68.1%
CC(C)CC(NC(=O)C(Cc1ccccc1)NC(=O)c1cnccn1)B(O)O (stereo not given) + Cc1ccccc1N=Nc1ccc(NC(=O)c2ccnn2C)c(C)c1 | 18.3 | 17.9 | 17.4 | 17.6 | 17.2 | 96.9 | 103 | 103 | 11.9 | 0.85 | 0.51 | 103 | 110 | 98.6 | 10.4 | 4.46 | 0.43 | 106 | 107 | 92.4 | viability, T/C [16]: 11.7%; viability, T/C [17]: 0.98%; viability, T/C [18]: 2%; viability, T/C [19]: 98.9%; viability, T/C [20]: 96.1%; viability, T/C [21]: 104%; viability, T/C [22]: 7.1%; viability, T/C [23]: 0.92%; viability, T/C [24]: 0.45%; viability, T/C [25]: 104%; viability, T/C [26]: 106%; viability, T/C [27]: 80.3%; viability, T/C [28]: 21.8%; viability, T/C [29]: 1.78%; viability, T/C [30]: 1.25%
